{"source": "patent US12403200B2", "about": "“Methods and compositions for treating autoimmune diseases” (priority 2019, dated 2025)", "key": {"C57BL/6 (CD45.2+) mice": {"test_system": "C57BL/6 (CD45.2+) mice", "assay": "MOG-induced EAE model with congenic transplant", "type": "in vivo, mouse", "experimental": "Experimental Autoimmune Encephalomyelitis (EAE) Model: C57BL/6 (CD45.2) mice were induced with MOG35-55 peptide in complete Freund's adjuvant, followed by the administration of pertussis toxin (PTX) at 4 h post MOG35-55 and 24 h post initial dose of PTX. Disease onset was around 9-12 days post induction. Animals were scored twice a day for a duration of 80 days post EAE induction. EAE Clinical Scoring Scale: 1-limp tail; 2-partial hind limb paralysis; 3-Complete hind limb paralysis; 4-Complete hind and partial front limb paralysis; 5-moribund bound. Animals were euthanized at 2 consecutive scores of 4. Terminal analysis of tissues (peripheral blood, lymph nodes) were evaluated to determine chimerism and immune component of the relapsing EAE mice. Lymph node cells were stimulated (S) with PMS/lonomycin (50 ng/mL) and Brefeldin A (1 μg/mL) or not stimulated (NS) and evaluated for T cell chimerism (donor, host) and IL-17 production.\nTo induce EAE in a murine model, C57BL/6 (CD45.2+) mice were induced with MOG35_55 peptide in complete Freund's adjuvant, followed by the administration of pertussis toxin (PTX). […]"}, "[1]": {"settings": "Quintieri et al. 2005; cited from earlier work"}}}
{"smiles": "CCCCCCCCc1ccc(CCC(N)(CO)CO)cc1", "note": "[FTY-720, reference compound]", "values": [{"measurement": "Incidence", "setting": "C57BL/6 (CD45.2+) mice; Table 3, EAE incidence, treatment groups of FIG. 5G", "value": 100, "unit": "%"}, {"measurement": "Mean Time to EAE onset", "setting": "C57BL/6 (CD45.2+) mice; Table 3, treatment groups of FIG. 5G", "value": 12, "unit": "days"}, {"measurement": "peak disease score in active EAE", "setting": "C57BL/6 (CD45.2+) mice; treatment at day 13", "value": 2.3}, {"measurement": "progression of disease activity in active EAE", "setting": "C57BL/6 (CD45.2+) mice; treatment on day 10 or day 13", "value": "halted disease"}]}
{"smiles": "COc1cccc2c1C(=O)c1c(O)c3c(c(O)c1C2=O)C[C@@](O)(C(=O)CO)C[C@@H]3O[C@H]1CC2[C@H](O[C@@H]3[C@@H](OC)OCCN23)[C@H](C)O1", "note": "(some centres unmarked) [PNU-159682]", "values": [{"measurement": "cytotoxicity relative to the parent nemorubicin", "setting": "[1]", "value": "greater than 3000 fold"}]}
